row,SMILES,melting point [°C]
1,CCCCOc1c2ccccc2c(C=O)c2ccccc12,65 to 67
2,CS(=O)(=O)c1ccc(-c2cnn(Cc3ncc(Cl)s3)c(=O)c2-c2ccc(F)cc2)cc1,185 to 186
3,O=C1COc2ccc([N+](=O)[O-])cc2N1,221 to 223
4,COC(=O)CS(=O)(=O)CCCCCn1nc(-c2ccccc2)c(-c2ccccc2)c1-c1ccccc1,102
5,Cc1cc(C(=S)N(C)C)ncc1C(c1cc(F)ccc1F)S(=O)(=O)c1ccc(F)cc1 (stereo not drawn),161 to 164
6,COc1cc(C(=O)O)ccc1Cc1cn(C)c2ccc(CCNC(=O)N3CCOCC3)cc12,221 to 226
7,CN(C)c1ccc(NC(=O)N(Cc2ccccc2)C[C@H]2CC[C@H](CN(Cc3ccccc3)C(=O)Nc3ccc(N(C)C)cc3)CC2)cc1,142 to 144
8,CN(C)CCCNC(=O)c1ccc(-c2nnc(CSCCCOc3ccccc3)o2)cc1,77 to 80
9,COc1ccc(S(=O)(=O)n2ccc3ccnc(-c4cccs4)c32)cc1,112 to 114
10,O=Cc1c(C#Cc2ccccc2)sc2ccccc12,105 to 106
11,COc1ccc(CNc2c(C)c(C)c3c(c2C)C(c2ccc(F)cc2)C(C)(C)O3)cc1 (stereo not drawn),114 to 115
12,O=C(O)c1ccc2c(c1)Cc1cccnc1O2,285 to 286
13,CC(=O)N1C(=O)C(C(=O)c2cccs2)c2ccccc21 (stereo not drawn),139 to 140
14,COC(=O)C1=C(C)NC(C)=C(C(=O)OCCCl)C1c1cccc([N+](=O)[O-])c1 (stereo not drawn),129 to 131
15,O=C(O)COc1ccc(-c2ccccc2OC2OC(CO)C(O)C(O)C2O)cc1 (stereo not drawn),145 to 146
16,Cc1ccc(-c2nc(C)cc(Cl)n2)cc1,103 to 104
17,O=c1c2c([nH]n1-c1ccccc1)CCCC2,178 to 181
18,O=C(CCCc1ccc(-c2ccc(Cl)cc2)cc1)c1ccc(CN2CCCC2)cc1,114 to 115
19,CCc1nc(C(=O)NCCc2ccc(S(N)(=O)=O)cc2)no1,159 to 160
20,O=C(O)c1ncn2c(C(F)(F)F)cc(-c3ccc(C(F)(F)F)cc3)nc12,231
21,CCCc1nc(N)nc(O)c1I,233 to 234
22,COC(=O)[C@@H](NC(=O)[C@H](Cc1ccccc1)NC(=O)c1ccccc1)C(C)C,160 to 163
23,COc1cc(CN2CCN(c3cccc(C)c3Cl)CC2)cc(OC)c1OC,112 to 113
24,COCCCCCCCCCCCCCCSCCCO,35 to 37
25,CC1Nc2ccc3c(c2N1C)OC(CN1CC=C(c2c[nH]c4ccccc24)CC1)CO3 (stereo not drawn),186 to 188

row,SMILES,melting point [°C]
1,COC(=O)c1cn(C2=CC(C)(C)Oc3ccc(C#N)cc32)c2ccccc12,177 to 180
2,NC(=O)CC(CC(N)=O)c1ccccc1Br,168 to 170
3,Cc1ccc2c(c1)Cc1c(C(=O)C(C#N)C(=O)Nc3ccccc3)nn(-c3ccccc3)c1-2 (stereo not drawn),249 to 251
4,COc1cc(C(C)=O)ccc1OCCCN1CCCC(C(O)(c2ccc(F)cc2)c2ccc(F)cc2)C1 (stereo not drawn),100 to 105
5,CCOC(=O)c1c(C)n(-c2ccccc2)c(C)c(C(=O)OCc2ccccc2)c1=O,142
6,FC(F)(F)c1ccc(-c2cc(Oc3ccc4cc[nH]c4c3)ncn2)cc1,206 to 209
7,CCCn1cc2c(C3C(=O)Nc4ccc(Br)cc43)nc(NCCC(F)(F)F)nc2n1 (stereo not drawn),> 300
8,N#CCc1nc(C(=O)c2ccc(F)cc2)no1,78 to 80
9,CC1C(=O)c2ccccc2C1NCCc1ccccc1 (stereo not drawn),82 to 83
10,COc1cc(N2CCN(Cc3ccccc3)CC2)c2ncccc2c1Cl,138 to 140
11,CC(=O)C(C#N)c1ccc(F)c(F)c1 (stereo not drawn),147 to 152
12,O=C(O)c1ccc(=O)n(-c2ccccc2)c1,115 to 120
13,CC(C)(O)Cc1c2c(nn1CCO)c(N)nc1ccccc12,196 to 198
14,CC(Sc1nc(N)cc(Cl)n1)c1cc2ccoc2cn1 (stereo not drawn),187 to 188
15,O=[N+]([O-])c1cc(Cl)c2c(c1)C(F)(F)C(F)(F)S2,61.5 to 62
16,CC/C(=C(\c1ccc(/C=C/C(=O)O)cc1)c1ccc(OC(=O)c2cccs2)cc1)c1ccccc1,175 to 176
17,CSCCCNc1cn(-c2cccnc2)nc1Cl,80 to 81
18,CNc1nc(Nc2ccc(Cl)c(CNC(=O)OC(C)(C)C)c2)ncc1[N+](=O)[O-],195
19,O=[N+]([O-])c1ccc2nc(Cl)c(Cc3ccccc3)cc2c1,159 to 161
20,NS(=O)(=O)c1ccc(NC(=O)CNc2ccc(Cl)cc2)c(Cl)c1,185
21,C=CCOc1ccc2c(C)c(F)c(=O)oc2c1C,117
22,Cc1nn(C)c2ccc(C(=O)O)c(C3=NC(C)(C(C)C)C(=O)N3)c12 (stereo not drawn),156 to 166
23,CCCN(CC)c1cc(C)nc(Oc2c(C)cc(C)cc2C)c1C,167 to 169
24,COC1C=C(c2ccc(C#N)cc2)C(OC)O1 (stereo not drawn),71 to 72
25,CCOC(=O)N1C[C@@H]2CC[C@H]1C(=O)C2,68.5 to 69.5

row,SMILES,melting point [°C]
1,CCCCCNC(=O)c1ccc(Cl)nn1,98 to 101
2,O=C(c1ccc(O)cc1O)c1ccccc1F,109 to 111
3,O=S(=O)(c1ccccc1)n1cc(I)c2c(OCc3ccccc3)ccnc21,177 to 179
4,CC(Oc1ccc(Br)cc1)(C(=O)O)c1ccccc1 (stereo not drawn),88 to 89
5,CCCCC(CC)COc1ccc(-c2nc(-c3ccc(OCC(CC)CCCC)cc3)nc(-c3ccc(OCC(CC)CCCC)cc3O)n2)cc1 (stereo not drawn),93 to 95
6,CCCCCCCN1C(=O)C2CC(c3ccc([N+](=O)[O-])cc3)(C2)C1=O,91 to 92
7,O=c1[nH]c2ccccc2c2ccnn12,253 to 254
8,CCOC(=O)N1CCN(c2ccc(C3=NNC(=O)CC3C)cc2N)CC1 (stereo not drawn),193 to 195
9,CN(C(=O)CN(C(=O)CNC(=O)Nc1cccc(CO)c1)c1ccccc1)c1ccccc1,120
10,CNC(=O)N1CC(Oc2cccc(Br)c2)C1,134 to 135
11,CCCOc1ccccc1-c1nc2nc(NC)ncc2c(=O)[nH]1,235 to 236
12,O=C1CNC(c2ccc(Cl)cc2)=NN1CC(F)(F)F,178 to 180
13,Nc1sc2c(c1C(=O)c1cccc(C(F)(F)F)c1)CCN(CCCc1ccccc1)C2,176 to 178
14,COC(=O)Cn1c(Cc2ccccc2)ccc(NC(=O)CCc2ccccc2)c1=O,95 to 97
15,CCOC(=O)C1=Cc2cc(Cl)ccc2N(C)C1C(F)(F)F (stereo not drawn),118 to 120
16,Cc1cc(CC=CCO)c(O)c2c1NC(=O)C2(C)C,174
17,Cc1cc(C)nc(-n2ccnc2SCc2ccccc2NC=O)c1,124 to 126
18,CO[C@H]1CC[C@H](C(=O)N2CCC(c3[nH]nc4c3C(=O)c3c(NC(=O)NN5CCOCC5)cccc3-4)CC2)CC1,178 to 180
19,Cn1cc(C(N)=O)c(Cl)n1,164 to 166
20,CCCCC(=O)Nc1c(C)c(C)c2c(c1C)C(c1ccc(C)cc1)C(C)(C)O2 (stereo not drawn),156 to 157
21,O=C1NC(=O)C(Cc2ccc(O)c(C(=O)NCc3ccc(C(F)(F)F)cc3)c2)S1 (stereo not drawn),146 to 148
22,Oc1ccc(-c2cc3cc(F)cc(F)c3o2)cc1,152 to 154
23,NC(=O)c1cc2c(Oc3ccc(-n4ccnc4)cc3)cncc2s1,310 to 312
